Columns and labels:
Chitinase (Trichoderma) [1] = experiment: Compound was evaluated for inhibitory activity against Trichoderma Chitinase in presence of allosamidin at the dose of 31 ug/mL
Chitinase (Trichoderma) [2] = experiment: Compound was evaluated for inhibitory activity against Trichoderma Chitinase in presence of allosamidin at the dose of 7.8 ug/mL
Chitinase (Trichoderma) [3] = experiment: Compound was evaluated for inhibitory activity against Trichoderma Chitinase in presence of allosamidin at the dose of 125 ug/mL
Chitinase (Trichoderma) [4] = experiment: Compound was evaluated for inhibitory activity against trichoderma chitinase in presence of allosamidin at the dose of 500 ug/mL

- inhibition (Chitinase (Trichoderma) [1]): 21.9%
- inhibition (Chitinase (Trichoderma) [2]): 7.8%
- inhibition (Chitinase (Trichoderma) [3]): 42.2%
- inhibition (Chitinase (Trichoderma) [4]): 65.6%
SMILES: CC(=O)NC(/C=N/NC(=O)CCCCCNC(=O)CCCCC1SC[C@@H]2NC(=O)N[C@H]12)C(OC(/C=N/NC(=O)CCCCCNC(=O)CCCCC1SC[C@@H]2NC(=O)N[C@H]12)CO)OC1C(CO)OC(OC2C(O)C3N=C(N(C)C)OC3C2CO)C(NC(C)=O)C1O (some centres undefined)
